biological target: TNF-α converting enzyme (TACE) (Homo sapiens, UniProt P78536); test: TACE inhibition, fluorescent peptidyl substrate; assay type: biochemical; settings: not given
Description: […] The reaction is initiated by addition of a fluorescent peptidyl substrate (final concentration 100 μM) to each well and then shaking on a shaker for 5 sec.
The reaction is read (excitation 340 nm, emission 420 nm) for 10 min. and the increase in fluorescence over time is plotted as a linear line. The slope of the line is calculated and represents the reaction rate.
The mean (x±sem) of the control rate is calculated and compared for statistical significance (p<0.05) with drug-treated rates using Dunnett's multiple comparison test.

TNF-α converting enzyme (TACE), sequence (P78536 215-824): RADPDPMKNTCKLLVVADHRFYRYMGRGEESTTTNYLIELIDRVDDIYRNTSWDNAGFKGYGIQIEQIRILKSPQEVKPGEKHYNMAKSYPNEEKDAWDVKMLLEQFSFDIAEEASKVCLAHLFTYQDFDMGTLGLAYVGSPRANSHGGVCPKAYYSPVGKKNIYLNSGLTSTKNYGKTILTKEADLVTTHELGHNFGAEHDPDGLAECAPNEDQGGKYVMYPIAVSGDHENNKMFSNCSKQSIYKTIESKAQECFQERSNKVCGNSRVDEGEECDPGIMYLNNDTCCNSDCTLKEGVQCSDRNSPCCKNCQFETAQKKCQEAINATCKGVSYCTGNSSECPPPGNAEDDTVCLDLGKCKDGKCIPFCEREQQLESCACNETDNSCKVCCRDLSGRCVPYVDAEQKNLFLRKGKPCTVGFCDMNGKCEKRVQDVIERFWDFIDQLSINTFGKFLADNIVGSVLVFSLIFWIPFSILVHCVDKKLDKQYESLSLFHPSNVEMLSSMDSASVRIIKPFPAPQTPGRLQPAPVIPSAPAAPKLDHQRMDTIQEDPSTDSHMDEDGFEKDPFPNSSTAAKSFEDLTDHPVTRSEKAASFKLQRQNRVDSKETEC

Row | IC50 | Molecule
1 | 17.6 nM | CC#CCOc1ccc([S+]([O-])[C@H](C(=O)NO)c2ccc(OC)cc2)cc1 (single isomer, unassigned) [Example 78]

same assay, conditions: Table 1, first part; read-out: TACE IC50

Row | Molecule | IC50
2 | CC#CCOc1ccc(S(=O)(=O)C(CCCCNC(=O)Cc2ccc(Cl)c(Cl)c2)C(=O)NO)cc1 (stereo not shown) [Example 37, 2-(4-But-2-ynyloxy-benzenesulfonyl)-6-[2-(3,4-dichloro-phenyl)-acetylamino]-hexanoic acid hydroxyamide] | 43.7 nM
3 | CC#CCOc1ccc(SC(CCCCNC(=O)CNC(=O)Cc2ccc(Cl)c(Cl)c2)C(=O)NO)cc1 (stereo not shown) [Example 43, 2-(4-but-2-ynyloxy-phenylsulfanyl)-6-{2-[2-(3,4-dichloro-phenyl)-acetylamino]-acetylamino}-hexanoic acid hydroxyamide] | 32.5 nM
4 | CC#CCOc1ccc(S(=O)(=O)C(CCCCNC(=O)CNC(=O)Cc2ccc(Cl)c(Cl)c2)C(=O)NO)cc1 (stereo not shown) [Example 65, 2-(4-But-2-ynyloxy-benzenesulfonyl)-6-{2-[2-(3,4-dichloro-phenyl)-acetylamino]-acetylamino}-hexanoic acid hydroxyamide] | 52.1 nM

The next lines start with the values.

Row | IC50 | Molecule
5 | 38.5 nM | 2-(4-But-2-ynyloxy-benzenesulfinyl)-6-[2-(1,3-dioxo-1,3-dihydro-isoindol-2-yl)-acetylamino]-hexanoic acid hydroxyamide [Example 55]
6 | 28.3 nM | CC#CCOc1ccc([S+]([O-])C(CCCCNC(=O)c2nccc3ccccc23)C(=O)NO)cc1 (stereo not shown) [Example 31, Isoquinoline-1-carboxylic acid [5-(4-but-2-ynyloxy-benzenesulfinyl)-5-hydroxycarbamoyl-pentyl]-amide]
7 | 138 nM | N-[5-(4-But-2-ynyloxy-phenylsulfanyl)-5-hydroxycarbamoyl-pentyl]-2-phenethyl-benzamide [Example 15]
8 | 84.2 nM | N-{[5-(4-But-2-ynyloxy-phenylsulfanyl)-5-hydroxy-carbamoyl-pentylcarbamoyl]-methyl}-2-phenethyl-benzamide [Example 46]
9 | 27.2 nM | Quinoline-2-carboxylic acid [5-(4-but-2-ynyloxy-benzenesulfinyl)-5-hydroxycarbamoyl-pentyl]-amide [Example 54]

same assay, conditions: Table 1, second part; footnote a: % @ 10 μM

Row | TACE % @ 10 μM | Molecule
10 | 48% | CC#CCOc1ccc(S(=O)(=O)C(C(=O)NO)c2ccc(-c3cccs3)cc2)cc1 (stereo not shown) [Example 91, 2-{[4-(2-butynyloxy)phenyl]sulfonyl}-N-hydroxy-2-[4-(2-thienyl)phenyl]acetamide]
11 | 40.90% | CC#CCOc1ccc(SC(C(=O)NO)c2ccc3ccccc3c2)cc1 (stereo not shown) [Example 114, 2-{[4-(2-Butynyloxy)phenyl]sulfanyl}-2-(2-naphthyl)-N-hydroxyacetamide]

same assay, conditions: Table 1, second part; footnote a: IC50 (nM); read-out: TACE IC50

Row | IC50 | Molecule
12 | 682 nM | CC#CCOc1ccc([S+]([O-])[C@@H](C(=O)NO)c2ccc(-c3cccs3)cc2)cc1 (stereo partly drawn) [Example 90, (2R)-2-{[4-(2-butynyloxy)phenyl]sulfinyl}-N-hydroxy-2-[4-(2-thienyl)phenyl]ethanamide]
13 | 108 nM | CC#CCOc1ccc(SC(C(=O)NO)c2ccc(F)cc2)cc1 (stereo not shown) [Example 95]

Source: patent US6825354B2 (Wyeth Holdings Corporation, priority 1999, dated 2004)
